Laboratory results: patent publication US20100137449A1, “SUBSTITUTED 1,3-CYCLOPENTADIONE MULTI-TARGET PROTEIN KINASE MODULATORS OF CANCER, ANGIOGENESIS AND THE INFLAMMATORY PATHWAYS ASSOCIATED THEREWITH” (METAPROTEOMICS, LLC, priority 2007, published 2010)
Marks after values point to notes of the source that are not given here. Each block holds one compound with its values, some of them ahead of it.

Tests used:
[1] = target: T1, Bmx(h) (Homo sapiens, UniProt P51813); test: KinaseProfiler Assay
T1 sequence (P51813 1-675): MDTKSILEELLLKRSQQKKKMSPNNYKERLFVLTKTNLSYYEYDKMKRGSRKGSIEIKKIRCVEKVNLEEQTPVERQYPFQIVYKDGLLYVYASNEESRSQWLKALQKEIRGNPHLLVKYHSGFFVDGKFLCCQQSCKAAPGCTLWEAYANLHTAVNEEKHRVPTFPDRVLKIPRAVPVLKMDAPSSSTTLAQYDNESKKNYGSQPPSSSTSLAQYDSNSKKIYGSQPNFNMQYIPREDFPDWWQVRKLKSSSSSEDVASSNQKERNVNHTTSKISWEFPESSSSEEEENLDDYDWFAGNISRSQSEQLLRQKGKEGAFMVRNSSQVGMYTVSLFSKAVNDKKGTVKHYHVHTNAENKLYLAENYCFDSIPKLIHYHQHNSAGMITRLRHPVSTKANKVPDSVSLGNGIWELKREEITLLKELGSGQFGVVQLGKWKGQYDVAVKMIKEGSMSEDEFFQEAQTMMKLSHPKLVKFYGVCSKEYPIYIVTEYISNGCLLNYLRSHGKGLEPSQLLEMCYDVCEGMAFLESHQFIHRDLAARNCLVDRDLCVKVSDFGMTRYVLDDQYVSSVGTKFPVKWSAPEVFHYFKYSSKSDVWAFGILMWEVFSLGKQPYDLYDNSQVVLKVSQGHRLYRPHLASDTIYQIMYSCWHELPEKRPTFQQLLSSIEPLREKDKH

[2] = test system: rat aortic rings; test: Ex vivo rat aortic ring angiogenesis assay; type: cell-based
Method: These ex vivo organo-typic cultures were treated with single compound. […] Neovascularization was evaluated as a marker of the observed angiogenic response.
Statistical analysis—Analysis of variance was performed on the six observations per treatment for the controls and two test concentrations after normalizing to the dimethyl sulfoxide control. The probability of a type I error was set at the nominal five percent level.

[3] = test system: HUVEC; test: Migration wound healing assay; type: cell-based
[4] = test system: endothelial cells; test: Proliferation assay (DNA content, Hoechst 33258); type: cell-based
Method: Methodology—A day before the assay, 1×10^4 endothelial cells were plated in quadruplicate in 24-well plates ad grown in adequate complete medium over night. Cells were then treated with 10 ug/ml and 20 ug/ml of each drug. […] The dilutions and concentrations of the dyes were chosen to yield appropriate dye/base pair ratios that are crucial to obtain maximal linearity and sensitivity of the DNA quantification assays. After an incubation time of ˜10 min, fluorescence intensities were measure. All investigations were generally performed at room temperature with the solutions protected from light. Spectrofluorimetric measurements were performed with Spectramax Gemini XS. […] Florescence values were converted into DNA concentrations according to the fluorescence intensities of DNA standard calibration curves.

Structure (SMILES): CC(C)CCC(=O)[C@]1(O)C(O)=C(C(=O)C(C)C)C(=O)[C@H]1CCC(C)C [TH1, tetrahydro-isocohumulone]
- activity in inhibiting BMX in comparison with TH4 and TH5 ([1]; 100 μg/ml): about 50%

- inhibition of BMX kinase ([1]; 100 μg/mL): inhibit it almost completely
Structure (SMILES): CCC(C)C(=O)C1=C(O)[C@@](O)(C(=O)CCC(C)C)[C@H](CCC(C)C)C1=O (stereo partly shown) [TH4, tetrahydro-isoadhumulone]

Structure (SMILES): COc1cc(O)c(CC=C(C)C)c(O)c1C(=O)/C=C/c1ccc(O)cc1 [Xanthohumol, xanthohumol]
- Relative Number of Vessels vs Dimethyl Sulfoxide Controls ([2]; 5.0 μg/mL): 95.9
- Relative Number of Vessels vs Dimethyl Sulfoxide Controls ([2]; 20 μg/mL): 100
- vessel growth (in words) ([2]; 20 and 5 μg/mL): not active
- Summary of Effects: Aortic Angiogenesis ([2]; summary table): Not Active
- Relative Percent Wound Closure at Six Hours vs Dimethyl Sulfoxide Controls ([3]; 20 μg/mL, HUVEC, six hours): 45** Percent
- wound closure (in words) ([3]; 20 ug/ml, 6 hours): most active of the test materials
- Summary of Effects: Migration ([3]; summary table): −60%
- Relative DNA Content vs Dimethyl Sulfoxide Controls ([4]; 24 Hours, 10 μg/mL): 95
- Relative DNA Content vs Dimethyl Sulfoxide Controls ([4]; 24 Hours, 20 μg/mL): 66**
- Relative DNA Content vs Dimethyl Sulfoxide Controls ([4]; 48 Hours, 10 μg/mL): 82**
- Relative DNA Content vs Dimethyl Sulfoxide Controls ([4]; 48 Hours, 20 μg/mL): 57**
- Relative DNA Content vs Dimethyl Sulfoxide Controls ([4]; 72 Hours, 10 μg/mL): 71**
- Relative DNA Content vs Dimethyl Sulfoxide Controls ([4]; 72 Hours, 20 μg/mL): 42**
- Summary of Effects: Proliferation ([4]; summary table): −60%
